According to ChEMBL document CHEMBL3046822, “Synthesis, antiplatelet aggregation activity, and molecular modeling study of novel substituted-piperazine analogues” (2011):
The source made the active and inactive calls. The calls are words filed in the database; no cut-off is given here.

Legend:
[1] = Antiaggregating activity in Homo sapiens (human) platelet rich plasma assessed as ADP-induced platelet aggregation at 0.1 uM incubated for 4 min prior to ADP-induction measured for 5.5 min by turbidometric analysis (reference value: 54 to 88%); assay type: functional
[2] = system: Platelet; experiment: Antiaggregating activity in Homo sapiens (human) platelet rich plasma assessed as inhibition of arachidonic acid-induced platelet aggregation at 1 uM incubated for 4 min prior to arachidonic acid-induction measured for 5.5 min by turbidometric analysis; assay type: functional, cell-free
[3] = system: Platelet; experiment: Antiaggregating activity in Homo sapiens (human) platelet rich plasma assessed as inhibition of adrenaline-induced platelet aggregation at 0.5 uM incubated for 4 min prior to adrenaline-induction measured for 5.5 min by turbidometric analysis; assay type: functional, cell-free
[4] = system: Platelet; experiment: Antiaggregating activity in Homo sapiens (human) platelet rich plasma assessed as inhibition of adrenaline-induced platelet aggregation at 1 uM incubated for 4 min prior to adrenaline-induction measured for 5.5 min by turbidometric analysis; assay type: functional, cell-free
[5] = system: Platelet; experiment: Antiaggregating activity in Homo sapiens (human) platelet rich plasma assessed as inhibition of adrenaline-induced platelet aggregation at 0.1 uM incubated for 4 min prior to adrenaline-induction measured for 5.5 min by turbidometric analysis; assay type: functional, cell-free
[6] = system: Platelet; experiment: Antiaggregating activity in Homo sapiens (human) platelet rich plasma assessed as inhibition of adrenaline-induced platelet aggregation at 0.25 uM incubated for 4 min prior to adrenaline-induction measured for 5.5 min by turbidometric analysis; assay type: functional, cell-free
[7] = Antiaggregating activity in Homo sapiens (human) platelet rich plasma assessed as ADP-induced platelet aggregation at 0.25 uM incubated for 4 min prior to ADP-induction measured for 5.5 min by turbidometric analysis (reference value: 54 to 88%); assay type: functional
[8] = Antiaggregating activity in Homo sapiens (human) platelet rich plasma assessed as ristocetin-induced platelet aggregation at 1 uM incubated for 4 min prior to ristocetin-induction measured for 5.5 min by turbidometric analysis (reference value: 65 to 99%); assay type: functional
[9] = Antiaggregating activity in Homo sapiens (human) platelet rich plasma assessed as ristocetin-induced platelet aggregation at 0.5 uM incubated for 4 min prior to ristocetin-induction measured for 5.5 min by turbidometric analysis (reference value: 65 to 99%); assay type: functional
[10] = Antiaggregating activity in Homo sapiens (human) platelet rich plasma assessed as ADP-induced platelet aggregation at 0.5 uM incubated for 4 min prior to ADP-induction measured for 5.5 min by turbidometric analysis (reference value: 54 to 88%); assay type: functional
[11] = system: Platelet; experiment: Antiaggregating activity in Homo sapiens (human) platelet rich plasma assessed as inhibition of ADP-induced platelet aggregation at 1 uM incubated for 4 min prior to ADP-induction measured for 5.5 min by turbidometric analysis; assay type: functional, cell-free
[12] = Antiaggregating activity in Homo sapiens (human) platelet rich plasma assessed as collagen-induced platelet aggregation at 0.25 uM incubated for 4 min prior to collagen-induction measured for 5.5 min by turbidometric analysis (reference value: 50 to 98%); assay type: functional
[13] = system: Platelet; experiment: Antiaggregating activity in Homo sapiens (human) platelet rich plasma assessed as inhibition of collagen-induced platelet aggregation at 0.5 uM incubated for 4 min prior to collagen-induction measured for 5.5 min by turbidometric analysis; assay type: functional, cell-free
[14] = Antiaggregating activity in Homo sapiens (human) platelet rich plasma assessed as collagen-induced platelet aggregation at 0.1 uM incubated for 4 min prior to collagen-induction measured for 5.5 min by turbidometric analysis (reference value: 50 to 98%); assay type: functional
[15] = system: Platelet; experiment: Antiaggregating activity in Homo sapiens (human) platelet rich plasma assessed as inhibition of collagen-induced platelet aggregation at 1 uM incubated for 4 min prior to collagen-induction measured for 5.5 min by turbidometric analysis; assay type: functional, cell-free
[16] = Antiaggregating activity in Homo sapiens (human) platelet rich plasma assessed as ristocetin-induced platelet aggregation at 0.1 uM incubated for 4 min prior to ristocetin-induction measured for 5.5 min by turbidometric analysis (reference value: 65 to 99%); assay type: functional
[17] = Antiaggregating activity in Homo sapiens (human) platelet rich plasma assessed as ristocetin-induced platelet aggregation at 0.25 uM incubated for 4 min prior to ristocetin-induction measured for 5.5 min by turbidometric analysis (reference value: 65 to 99%); assay type: functional
[18] = Antiaggregating activity in Homo sapiens (human) platelet rich plasma assessed as arachidonic acid-induced platelet aggregation at 0.1 uM incubated for 4 min prior to arachidonic acid-induction measured for 5.5 min by turbidometric analysis (reference value: 55 to 100%); assay type: functional
[19] = Antiaggregating activity in Homo sapiens (human) platelet rich plasma assessed as disaggregation of arachidonic acid-induced platelet aggregation at 0.25 uM incubated for 4 min prior to arachidonic acid-induction measured for 5.5 min by turbidometric analysis relative to control; assay type: functional
[20] = Antiaggregating activity in Homo sapiens (human) platelet rich plasma assessed as disaggregation of arachidonic acid-induced platelet aggregation at 0.5 uM incubated for 4 min prior to arachidonic acid-induction measured for 5.5 min by turbidometric analysis relative to control; assay type: functional
[21] = system: Platelet; experiment: Antiaggregating activity in Homo sapiens (human) platelet rich plasma assessed as inhibition of adrenaline-induced platelet aggregation at 20 uM incubated for 4 min prior to adrenaline-induction measured for 5.5 min by turbidometric analysis; assay type: functional, cell-free
[22] = system: Platelet; experiment: Antiaggregating activity in Homo sapiens (human) platelet rich plasma assessed as inhibition of adrenaline-induced platelet aggregation at 10 uM incubated for 4 min prior to adrenaline-induction measured for 5.5 min by turbidometric analysis; assay type: functional, cell-free
[23] = Antiaggregating activity in Homo sapiens (human) platelet rich plasma assessed as ristocetin-induced platelet aggregation at 5 uM incubated for 4 min prior to ristocetin-induction measured for 5.5 min by turbidometric analysis (reference value: 65 to 99%); assay type: functional
[24] = Antiaggregating activity in Homo sapiens (human) platelet rich plasma assessed as ristocetin-induced platelet aggregation at 10 uM incubated for 4 min prior to ristocetin-induction measured for 5.5 min by turbidometric analysis (reference value: 65 to 99%); assay type: functional
[25] = system: Platelet; experiment: Antiaggregating activity in Homo sapiens (human) platelet rich plasma assessed as ADP-induced platelet aggregation at 20 uM incubated for 4 min prior to ADP-induction measured for 5.5 min by turbidometric analysis (reference value: 54 to 88%); assay type: functional
[26] = Antiaggregating activity in Homo sapiens (human) platelet rich plasma assessed as ADP-induced platelet aggregation at 5 uM incubated for 4 min prior to ADP-induction measured for 5.5 min by turbidometric analysis (reference value: 54 to 88%); assay type: functional
[27] = system: Platelet; experiment: Antiaggregating activity in Homo sapiens (human) platelet rich plasma assessed as inhibition of adrenaline-induced platelet aggregation at 5 uM incubated for 4 min prior to adrenaline-induction measured for 5.5 min by turbidometric analysis; assay type: functional, cell-free
[28] = system: Platelet; experiment: Antiaggregating activity in Homo sapiens (human) platelet rich plasma assessed as inhibition of ADP-induced platelet aggregation at 10 uM incubated for 4 min prior to ADP-induction measured for 5.5 min by turbidometric analysis; assay type: functional, cell-free
[29] = Antiaggregating activity in Homo sapiens (human) platelet rich plasma assessed as ADP-induced platelet aggregation at 1 uM incubated for 4 min prior to ADP-induction measured for 5.5 min by turbidometric analysis (reference value: 54 to 88%); assay type: functional
[30] = system: Platelet; experiment: Antiaggregating activity in Homo sapiens (human) platelet rich plasma assessed as inhibition of collagen-induced platelet aggregation at 20 uM incubated for 4 min prior to collagen-induction measured for 5.5 min by turbidometric analysis; assay type: functional, cell-free
[31] = system: Platelet; experiment: Antiaggregating activity in Homo sapiens (human) platelet rich plasma assessed as inhibition of collagen-induced platelet aggregation at 10 uM incubated for 4 min prior to collagen-induction measured for 5.5 min by turbidometric analysis; assay type: functional, cell-free
[32] = system: Platelet; experiment: Antiaggregating activity in Homo sapiens (human) platelet rich plasma assessed as inhibition of collagen-induced platelet aggregation at 5 uM incubated for 4 min prior to collagen-induction measured for 5.5 min by turbidometric analysis; assay type: functional, cell-free
[33] = Antiaggregating activity in Homo sapiens (human) platelet rich plasma assessed as collagen-induced platelet aggregation at 1 uM incubated for 4 min prior to collagen-induction measured for 5.5 min by turbidometric analysis (reference value: 50 to 98%); assay type: functional
[34] = system: Platelet; experiment: Antiaggregating activity in Homo sapiens (human) platelet rich plasma assessed as inhibition of ristocetin-induced platelet aggregation at 20 uM incubated for 4 min prior to ristocetin-induction measured for 5.5 min by turbidometric analysis; assay type: functional, cell-free
[35] = system: Platelet; experiment: Antiaggregating activity in Homo sapiens (human) platelet rich plasma assessed as inhibition of arachidonic acid-induced platelet aggregation at 20 uM incubated for 4 min prior to arachidonic acid-induction measured for 5.5 min by turbidometric analysis; assay type: functional, cell-free
[36] = system: Platelet; experiment: Antiaggregating activity in Homo sapiens (human) platelet rich plasma assessed as inhibition of arachidonic acid-induced platelet aggregation at 10 uM incubated for 4 min prior to arachidonic acid-induction measured for 5.5 min by turbidometric analysis; assay type: functional, cell-free
[37] = system: Platelet; experiment: Antiaggregating activity in Homo sapiens (human) platelet rich plasma assessed as inhibition of arachidonic acid-induced platelet aggregation at 5 uM incubated for 4 min prior to arachidonic acid-induction measured for 5.5 min by turbidometric analysis; assay type: functional, cell-free
[38] = Antiaggregating activity in Homo sapiens (human) platelet rich plasma assessed as arachidonic acid-induced platelet aggregation at 1 uM incubated for 4 min prior to arachidonic acid-induction measured for 5.5 min by turbidometric analysis (reference value: 55 to 100%); assay type: functional

Structure (SMILES): Br.O=C(C1CCCN(Cc2ccc(Br)cc2)C1)N1CCN(c2ccccn2)CC1 (stereo not given)
- Activity [1]: 76%
- inhibition [2]: Active
- inhibition [3]: Active
- inhibition [4]: Active
- inhibition [5]: Active
- inhibition [6]: Active
- Activity [7]: 65%
- Activity [8]: 24%
- Activity [9]: 63%
- Activity [10]: 18%
- inhibition [11]: Active
- Activity [12]: 64%
- inhibition [13]: Active
- Activity [14]: 67%
- inhibition [15]: Active
- Activity [16]: 91%
- Activity [17]: 81%
- Activity [18]: 72%
- Activity [19]: 22%
- Activity [20]: 28%

Structure (SMILES): O=C(c1ccc[n+](Cc2ccc(Br)cc2)c1)N1CCN(c2ncccn2)CC1.[Br-]
- inhibition [4]: Active
- inhibition [21]: Active
- inhibition [22]: Active
- Activity [23]: 43%
- Activity [24]: 27%
- inhibition [25]: Active
- Activity [26]: 64%
- inhibition [27]: Active
- Activity [8]: 60%
- inhibition [28]: Active
- Activity [29]: 60%
- inhibition [30]: Active
- inhibition [31]: Active
- inhibition [32]: Active
- Activity [33]: 64%
- inhibition [34]: Active
- inhibition [35]: Active
- inhibition [36]: Active
- inhibition [37]: Active
- Activity [38]: 52%
